According to ChEMBL document CHEMBL5131471, “Design, synthesis and mechanism studies of novel dual PARP1/BRD4 inhibitors against pancreatic cancer” (Eur J Med Chem, 2022):

Tests used:
[1] = molecular target: Poly [ADP-ribose] polymerase 1 (Homo sapiens, UniProt P09874); assay: Inhibition of PARP1 (unknown origin) using biotinylated NAD+ as substrate by microplate reader method
[2] = molecular target: Bromodomain-containing protein 4 (Homo sapiens, UniProt O60885); assay: Inhibition of BRD4-BD1/2 (unknown origin)
THP-1 = assay: Antiproliferative activity against human THP-1 cells expressing BRD4 assessed as inhibition of cell growth measured after 3 days by MTT assay; assay type: functional, cell-based; conditions: THP-1, 72 h
HCT-116 = assay: Antiproliferative activity against BRCA2-mutated human HCT-116 cells assessed as inhibition of cell growth measured after 7 days by MTT assay; assay type: functional, cell-based; conditions: HCT-116, 168 h
MDA-MB-468 = assay: Antiproliferative activity against BRCA-proficient human MDA-MB-468 cells assessed as inhibition of cell growth measured after 7 days by MTT assay; assay type: functional, cell-based; conditions: MDA-MB-468, 168 h
MDA-MB-231 = assay: Antiproliferative activity against BRCA-proficient human MDA-MB-231 cells assessed as inhibition of cell growth measured after 7 days by MTT assay; assay type: functional, cell-based; conditions: MDA-MB-231, 168 h
SW1990 = assay: Antiproliferative activity against human SW1990 cells assessed as inhibition of cell growth measured after 4 days by MTT assay; assay type: functional, cell-based; conditions: SW1990, 96 h
CFPAC-1 = assay: Antiproliferative activity against human CFPAC-1 cells assessed as inhibition of cell growth measured after 4 days by MTT assay; assay type: functional, cell-based; conditions: CFPAC-1, 96 h
CAPAN-1 = assay: Antiproliferative activity against human CAPAN-1 cells assessed as inhibition of cell growth measured after 4 days by MTT assay; assay type: functional, cell-based; conditions: CAPAN-1, 96 h

Sequence of Poly [ADP-ribose] polymerase 1 (P09874 whole entry): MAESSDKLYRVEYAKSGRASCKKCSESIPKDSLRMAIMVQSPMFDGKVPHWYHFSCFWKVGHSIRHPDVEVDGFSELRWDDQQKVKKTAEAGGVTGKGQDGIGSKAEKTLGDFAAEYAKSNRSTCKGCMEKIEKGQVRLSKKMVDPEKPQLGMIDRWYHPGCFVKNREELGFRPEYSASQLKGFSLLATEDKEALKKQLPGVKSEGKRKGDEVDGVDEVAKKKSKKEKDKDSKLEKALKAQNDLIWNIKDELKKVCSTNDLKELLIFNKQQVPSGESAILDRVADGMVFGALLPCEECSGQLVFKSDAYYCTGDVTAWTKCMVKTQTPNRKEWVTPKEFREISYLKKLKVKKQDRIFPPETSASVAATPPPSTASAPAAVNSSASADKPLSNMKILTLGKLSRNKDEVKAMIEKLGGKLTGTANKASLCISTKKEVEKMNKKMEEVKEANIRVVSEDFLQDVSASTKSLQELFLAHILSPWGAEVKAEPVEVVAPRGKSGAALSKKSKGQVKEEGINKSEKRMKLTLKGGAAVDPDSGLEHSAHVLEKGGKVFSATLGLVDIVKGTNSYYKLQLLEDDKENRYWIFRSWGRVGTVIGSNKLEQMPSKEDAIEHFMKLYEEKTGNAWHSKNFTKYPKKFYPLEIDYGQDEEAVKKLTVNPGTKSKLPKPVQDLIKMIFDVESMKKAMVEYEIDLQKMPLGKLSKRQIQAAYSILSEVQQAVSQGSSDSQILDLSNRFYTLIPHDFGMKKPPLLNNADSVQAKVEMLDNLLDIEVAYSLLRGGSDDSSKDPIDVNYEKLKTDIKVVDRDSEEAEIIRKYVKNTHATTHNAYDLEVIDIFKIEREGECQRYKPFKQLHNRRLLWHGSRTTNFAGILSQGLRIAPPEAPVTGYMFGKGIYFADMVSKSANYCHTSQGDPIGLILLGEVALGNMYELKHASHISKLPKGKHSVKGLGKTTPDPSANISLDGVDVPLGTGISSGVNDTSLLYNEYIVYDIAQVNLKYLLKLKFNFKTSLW

Row | IC50 [1] [nM] | IC50 [2] [nM] | IC50 (THP-1) [nM] | IC50 (HCT-116) [nM] | IC50 (MDA-MB-468) [nM] | IC50 (MDA-MB-231) [nM] | IC50 (SW1990) [nM] | Compound | IC50 (CFPAC-1) [nM] | IC50 (CAPAN-1) [nM]
1 | 73 | 534 |  |  |  |  |  | Cc1noc(C)c1-c1ccc2c(c1)C(c1ccccc1)N(CC(=O)NCc1nc3c(C(N)=O)cccc3[nH]1)C(=O)N2C (stereo unspecified) |  | 
2 | 116 | 132 | 4090 | 44400 | 2590 | 8090 |  | Cc1noc(C)c1-c1ccc2c(c1)C(c1ccccc1)N(CC(=O)c1nc3c(C(N)=O)cccc3[nH]1)C(=O)N2 (stereo unspecified) |  | 
3 | 326 | 114 |  |  |  |  |  | Cc1noc(C)c1-c1ccc2c(c1)C(c1ccccc1)N(CC(=O)NC(c1nc3c(C(N)=O)cccc3[nH]1)C(C)C)C(=O)N2 (stereo unspecified) |  | 
4 | 361 | 43 | 210 | 3720 | 1120 | 1320 | 2520 | Cc1noc(C)c1-c1ccc2c(c1)C(c1ccccc1)N(Cc1nc3c(C(N)=O)cccc3[nH]1)C(=O)N2 (stereo unspecified) | 2030 | 2310
5 | 112 | 116 | 1530 | 16900 | 930 | 2600 |  | Cc1noc(C)c1-c1ccc2c(c1)C(c1ccccc1)N(CC(=O)N[C@H](C)c1nc3c(C(N)=O)cccc3[nH]1)C(=O)N2 (stereo partly specified) |  | 
6 | 52 | 90 | 1660 | 16500 | 1040 | 2630 |  | Cc1noc(C)c1-c1ccc2c(c1)C(c1ccccc1)N(CC(=O)N[C@@H](C)c1nc3c(C(N)=O)cccc3[nH]1)C(=O)N2 (stereo partly specified) |  | 
7 | 187 | 326 | 740 | 5290 | 380 | 520 |  | Cc1noc(C)c1-c1ccc2c(c1)C(c1ccccc1)N(CC(=O)N[C@@H](C)c1nc3c(C(N)=O)cccc3[nH]1)C(=O)N2C (stereo partly specified) |  | 
8 | 62 | 102 | 690 | 11800 | 460 | 920 | 3880 | Cc1noc(C)c1-c1ccc2c(c1)C(c1ccccc1)N(CC(=O)NC(C)(C)c1nc3c(C(N)=O)cccc3[nH]1)C(=O)N2 (stereo unspecified) | 2560 | 3710
